Measured values from US6686393B1, “Pharmaceutical compositions having antiviral activity against human cytomegalovirus” (Murdock International Corporation, priority 1990, dated 2004).
Values joined by “and” are separate entries in the source; they are usually repeats but may differ in a detail not shown here. Equal entries are not always repeated. “Also recorded” adds a separate entry of the source. Where two headings read alike, the source gives them in different places.

Legend:
[1] = test system: human cytomegalovirus (HCMV), strain AD-169; experiment: Antiviral test (plaque reduction) versus HCMV, strain AD-169, in MRC-5 cells; type: cell-based; details: for Activity against HCMV: statement in words on the plaque reduction results
[2] = Human betaherpesvirus 5, AD169, MRC5, read-out: % Reduction
[3] = Human betaherpesvirus 5, AD169, MRC5, read-out: Percent Inhibition of Plaque Numbers (Compared to Virus Controls)

O=C1c2cccc(O)c2C(=O)c2c(O)cccc21 [1,8-Dihydroxyanthraquinone, 1,8-dihydroxyanthraquinone]
Number of Plaques ([1]; 0.01 μg/ml, Example 6): 10 | Number of Plaques ([1]; 0.01 μg/ml, Example 7): 26 | Number of Plaques ([1]; 0.032 μg/ml, Example 6): 9 | Number of Plaques ([1]; 0.032 μg/ml, Example 7): 20 | Number of Plaques ([1]; 0.1 μg/ml, Example 6): 10 | Number of Plaques ([1]; 0.1 μg/ml, Example 7): 22 | Number of Plaques ([1]; 0.32 μg/ml, Example 6): 12 | Number of Plaques ([1]; 0.32 μg/ml, Example 7): 44 | Number of Plaques ([1]; 1.0 μg/ml, Example 6): 10 | Number of Plaques ([1]; 1.0 μg/ml, Example 7): 35 | Number of Plaques ([1]; 3.2 μg/ml, Example 6): 8 | Number of Plaques ([1]; 3.2 μg/ml, Example 7): 42 | Number of Plaques ([1]; 10.0 μg/ml, Example 6): 12 | Number of Plaques ([1]; 10.0 μg/ml, Example 7): 30 | inhibition at 0.01 µg/mL ([1]; Human betaherpesvirus 5, AD169, MRC5, 0.01 μg/ml, Example 6, read-out: % Reduction): 0% | inhibition at 0.01 µg/mL ([1]; Human betaherpesvirus 5, AD169, MRC5, 0.01 μg/ml, Example 7, read-out: % Reduction): 0% | inhibition at 0.032 µg/mL ([1]; Human betaherpesvirus 5, AD169, MRC5, 0.032 μg/ml, Example 6, read-out: % Reduction): 0% | inhibition at 0.032 µg/mL ([1]; Human betaherpesvirus 5, AD169, MRC5, 0.032 μg/ml, Example 7, read-out: % Reduction): 37% | inhibition at 0.1 µg/mL ([1]; Human betaherpesvirus 5, AD169, MRC5, 0.1 μg/ml, Example 6, read-out: % Reduction): 0% | inhibition at 0.1 µg/mL ([1]; Human betaherpesvirus 5, AD169, MRC5, 0.1 μg/ml, Example 7, read-out: % Reduction): 31% | inhibition at 0.32 µg/mL ([1]; Human betaherpesvirus 5, AD169, MRC5, 0.32 μg/ml, Example 6, read-out: % Reduction): 0% | inhibition at 0.32 µg/mL ([1]; Human betaherpesvirus 5, AD169, MRC5, 0.32 μg/ml, Example 7, read-out: % Reduction): 0% | inhibition at 1 µg/mL ([1]; Human betaherpesvirus 5, AD169, MRC5, 1.0 μg/ml, Example 6, read-out: % Reduction): 0% | inhibition at 1 µg/mL ([1]; Human betaherpesvirus 5, AD169, MRC5, 1.0 μg/ml, Example 7, read-out: % Reduction): 0% | inhibition at 3.2 µg/mL ([1]; Human betaherpesvirus 5, AD169, MRC5, 3.2 μg/ml, Example 6, read-out: % Reduction): 0% | inhibition at 3.2 µg/mL ([1]; Human betaherpesvirus 5, AD169, MRC5, 3.2 μg/ml, Example 7, read-out: % Reduction): 0% | inhibition at 10 µg/mL ([1]; Human betaherpesvirus 5, AD169, MRC5, 10.0 μg/ml, Example 6, read-out: % Reduction): 0% | inhibition at 10 µg/mL ([1]; Human betaherpesvirus 5, AD169, MRC5, 10.0 μg/ml, Example 7, read-out: % Reduction): 0% | Activity against HCMV ([1]; listed as 1,8-dihydroxy anthraquinone): Slight activity | Activity against HCMV ([1]; listed as 1,8-dihydroxyanthraquinone): show activity; also recorded: activity but at lower levels | CD50 (MRC-5 cells; human): >10 µg/mL

O=C(O)c1cc(O)c2c(c1)[C@H]([C@H]1c3cc(C(=O)O)cc(O)c3C(=O)c3c(O[C@@H]4O[C@H](CO)[C@@H](O)[C@H](O)[C@H]4O)cccc31)c1cccc(O[C@@H]3O[C@H](CO)[C@@H](O)[C@H](O)[C@H]3O)c1C2=O [(+)Sennoside A, sennoside A]
Percent Inhibition of Plaque Numbers (Compared to Virus Controls) ([1]; 0.01 μg/ml, Example 2): 0% | Percent Inhibition of Plaque Numbers (Compared to Virus Controls) ([1]; 0.032 μg/ml, Example 2): 0% | Percent Inhibition of Plaque Numbers (Compared to Virus Controls) ([1]; 0.1 μg/ml, Example 2): 0% | Percent Inhibition of Plaque Numbers (Compared to Virus Controls) ([1]; 0.32 μg/ml, Example 2): 0% | Percent Inhibition of Plaque Numbers (Compared to Virus Controls) ([1]; 1.0 μg/ml, Example 2): 0% | Percent Inhibition of Plaque Numbers (Compared to Virus Controls) ([1]; 3.2 μg/ml, Example 2): 0% | Percent Inhibition of Plaque Numbers (Compared to Virus Controls) ([1]; 10 μg/ml, Example 2, ethanol stock (protohypericin in DMSO), cells exposed 6 or more days): 0% | CD50 (MRC-5 cells; Example 2, cells exposed 6 or more days): >10 µg/mL | CD50 (MRC-5 cells; Table 9 summary, two values = two experiments): >10 µg/mL

O=C1c2cccc(O)c2C(=O)c2c(O)cc(CO)cc21 [Aloe-Emodin, aloe-emodin]
inhibition at 0.01 µg/mL ([1]; Human betaherpesvirus 5, AD169, MRC5, 0.01 μg/ml, Example 2, read-out: Percent Inhibition of Plaque Numbers (Compared to Virus Controls)): 0% | inhibition at 0.032 µg/mL ([1]; Human betaherpesvirus 5, AD169, MRC5, 0.032 μg/ml, Example 2, read-out: Percent Inhibition of Plaque Numbers (Compared to Virus Controls)): 0% | inhibition at 0.1 µg/mL ([1]; Human betaherpesvirus 5, AD169, MRC5, 0.1 μg/ml, Example 2, read-out: Percent Inhibition of Plaque Numbers (Compared to Virus Controls)): 0% | inhibition at 0.32 µg/mL ([1]; Human betaherpesvirus 5, AD169, MRC5, 0.32 μg/ml, Example 2, read-out: Percent Inhibition of Plaque Numbers (Compared to Virus Controls)): 0% | inhibition at 1 µg/mL ([1]; Human betaherpesvirus 5, AD169, MRC5, 1.0 μg/ml, Example 2, read-out: Percent Inhibition of Plaque Numbers (Compared to Virus Controls)): 0% | inhibition at 3.2 µg/mL ([1]; Human betaherpesvirus 5, AD169, MRC5, 3.2 μg/ml, Example 2, read-out: Percent Inhibition of Plaque Numbers (Compared to Virus Controls)): 0% | inhibition at 10 µg/mL ([1]; Human betaherpesvirus 5, AD169, MRC5, 10 μg/ml, Example 2, ethanol stock (protohypericin in DMSO), cells exposed 6 or more days, read-out: Percent Inhibition of Plaque Numbers (Compared to Virus Controls)): 0% | CD50 (MRC-5 cells; human): >10 µg/mL

O=C1c2c(O)cccc2C([C@@H]2O[C@H](CO)[C@@H](O)[C@H](O)[C@H]2O)c2cc(CO)cc(O)c21 (stereo partly shown) [Aloin, aloin]
Number of Plaques [1]: 24 and 26 and 20 and 16 | inhibition at 0.01 µg/mL [1, 2]: 0% | inhibition at 0.032 µg/mL [1, 2]: 0% | inhibition at 0.1 µg/mL [1, 2]: 0% | inhibition at 0.32 µg/mL [1, 2]: 0% | inhibition at 1 µg/mL [1, 2]: 0% | inhibition at 3.2 µg/mL [1, 2]: 0% | inhibition at 10 µg/mL [1, 2]: 0% | CD50 (MRC-5 cells; human): >10 µg/mL

O=C1c2ccc(O)cc2C(=O)c2ccc(O)cc21 [Anthraflavic Acid, anthraflavic acid]
inhibition at 0.01 µg/mL [1, 3]: 0% | inhibition at 0.032 µg/mL [1, 3]: 0% | inhibition at 0.1 µg/mL [1, 3]: 0% | inhibition at 0.32 µg/mL [1, 3]: 0% | inhibition at 1 µg/mL [1, 3]: 11% | inhibition at 3.2 µg/mL [1, 3]: 15% | CD50 (MRC-5 cells; human): 3.4 µg/mL

O=C1c2ccccc2C(=O)c2ccccc21 [Anthraquinone, anthraquinone]
Number of Plaques ([1]; 0.01 μg/ml, Example 5): 36 | Number of Plaques ([1]; 0.032 μg/ml, Example 5): 27 | Number of Plaques ([1]; 0.1 μg/ml, Example 5): 30 | Number of Plaques ([1]; 0.32 μg/ml, Example 5): 32 | Number of Plaques ([1]; 1.0 μg/ml, Example 5): 34 | Number of Plaques ([1]; 3.2 μg/ml, Example 5): 36 | Number of Plaques ([1]; 10.0 μg/ml, Example 5): 55 | inhibition at 0.01 µg/mL ([1]; Human betaherpesvirus 5, AD169, MRC5, 0.01 μg/ml, Example 5, read-out: % Reduction): 20% | inhibition at 0.032 µg/mL ([1]; Human betaherpesvirus 5, AD169, MRC5, 0.032 μg/ml, Example 5, read-out: % Reduction): 27% | inhibition at 0.1 µg/mL ([1]; Human betaherpesvirus 5, AD169, MRC5, 0.1 μg/ml, Example 5, read-out: % Reduction): 33% | inhibition at 0.32 µg/mL ([1]; Human betaherpesvirus 5, AD169, MRC5, 0.32 μg/ml, Example 5, read-out: % Reduction): 29% | inhibition at 1 µg/mL ([1]; Human betaherpesvirus 5, AD169, MRC5, 1.0 μg/ml, Example 5, read-out: % Reduction): 24% | inhibition at 3.2 µg/mL ([1]; Human betaherpesvirus 5, AD169, MRC5, 3.2 μg/ml, Example 5, read-out: % Reduction): 20% | inhibition at 10 µg/mL ([1]; Human betaherpesvirus 5, AD169, MRC5, 10.0 μg/ml, Example 5, read-out: % Reduction): 0% | CD50 (MRC-5 cells; human): >10 µg/mL
